Here are results for 1 compound from patent US20240366813A1, “PEPTIDE-UREA DERIVATIVE, PHARMACEUTICAL COMPOSITION CONTAINING SAME AND APPLICATION THEREOF” (Bivision Pharmaceuticals, Inc., priority 0001, published 2024).

This data set can be described thus: In vivo metabolism test of 177Lu-labeled complex in SD rats (plasma radioactive counts). To be noted: for plasma radioactive counts: individual rat, 100 μL plasma; for plasma radioactive counts, MEAN: mean of rats. The method, then:
Eighteen SD rats (Hangzhou Ziyuan Experimental Animal Technology Co., Ltd.), male, weighing 180-200 g, were randomly divided into 6 groups, 3 rats in each group. […] of the labeled precursor compound was injected into the tail vein of each mouse. 250 μL of orbital blood was collected into anticoagulant tubes at 5 min, 0.5 h, 1 h, 2 h, 4 h, 8 h and 24 h after administration. Blood was centrifuged at 3000 rpm for 10 min, and 100 μL of plasma was taken into scintillation vials. 2 mL of scintillation fluid was added to each scintillation vial and shaken well. A liquid scintillation counter was used to detect radioactive counts in each vial.

Where [1] appears, read: 5 min after tail vein injection.
[2] abbreviates: 0.5 h after tail vein injection.

Where “and” joins values, the source holds several entries; their conditions need not be identical. Equal values may be shown once.

As to `O=C([O-])CN1CCN(CC(=O)[O-])CCN(CC(=O)N2CCc3cc(C(=O)NC(Cc4ccc5ccccc5c4)C(=O)NCCCCC(NC(=O)NC(CCC(=O)O)C(=O)O)C(=O)O)ccc3C2)CCN(CC(=O)[O-])CC1.[177Lu+3]` (centres unmarked) [^177Lu-E3], the plasma radioactive counts was 26791 cpm and 31372 cpm and 27797 cpm under setting [1]; 10681 cpm and 8675 cpm and 8026 cpm under setting [2]; 3448 cpm and 3676 cpm and 2916 cpm (1 h after tail vein injection); 539 cpm and 559 cpm and 458 cpm (2 h after tail vein injection); 178 cpm and 135 cpm and 181 cpm (4 h after tail vein injection); 154 cpm and 191 cpm and 184 cpm (8 h after tail vein injection). For the same compound, the plasma radioactive counts (24 h after tail vein injection) is 191 cpm and 175 cpm and 179 cpm. Moreover, the “plasma radioactive counts, MEAN” value under setting [1] worked out at 28653 cpm; the “plasma radioactive counts, MEAN” value under setting [2] was 9127 cpm; the “plasma radioactive counts, MEAN” value (1 h after tail vein injection) is 3347 cpm; the “plasma radioactive counts, MEAN” value (2 h after tail vein injection) came to 519 cpm; the “plasma radioactive counts, MEAN” value (4 h after tail vein injection) turned out to be 165 cpm; the “plasma radioactive counts, MEAN” value (8 h after tail vein injection) is given as 176 cpm. Also, the “plasma radioactive counts, MEAN” value (24 h after tail vein injection) came to 182 cpm.
